According to patent US8552048B2, “Phosphoramidate alkylator prodrugs for the treatment of cancer” (Threshold Pharmaceuticals, Inc., priority 2006, dated 2013):

Experiments:
[1] = test system: IGROV1 human ovarian cancer cells; test: IGROV1 ovarian cancer xenograft; type: in vivo; conditions: CDDP 4 mg/kg and 6 mg/kg i.p. Q7D×2 (both doses)
Method: Forty nude mice were subcutaneously implanted with IGROV1 human ovarian cancer cells (5×10^6 cells/mouse). The tumor volumes were measured twice weekly starting on day 7. On day 8, tumor volumes reached about 97.7±3.9 mm^3. The mice were randomized in 3 treatment groups that were administered the following: CDDP (4 mg/kg, ip, Q7D×2), CDDP (6 mg/kg, i.p. Q7D×2), and TH302 (75 mg/kg, i.v., Q7D×2). A control group of mice were administered saline. […] Forty five days after the first administration of TH302, tumor growth inhibition was 66%. The tumor growth delay (to 300 mm^3) was 19 days.

[2] = Pharmacokinetics after repeated administration (Q7D×3) to rats; type: in vivo
Method: Each rat received a 30 minute infusion once a week for three weeks (Q7D×3).
Br-IPM being capable of reacting with water and a number of other nucleophiles, for HPLC analysis of Br-IPM, the plasma obtained was frozen and treated with NaF and potassium oxalate.

[3] = Pharmacokinetics after repeated administration (Q7D×3) to dogs; type: in vivo
Source text: These changes were reversible.

[4] = test system: PC-3 human prostate tumor; test: GFP PC3 prostate orthotopic model; type: in vivo, mice
[5] = test system: PC-3 human prostate cells; test: PC-3 luciferase intracardiac metastasis model (bioluminescence); type: in vivo, nude mice
Method: Male nude mice were injected into their left ventricle with PC-3 human prostate cells (3×10^6) transfected with the gene for luciferase. The success of the intracardiac transfections was verified by a bioluminescence scan after the injection. On day 14, the mice with established bone tumor burden were randomized into four treatment groups (N=10): Taxotere® alone (20 mg/kg once a week for three weeks, i.v.), TH302 alone (50 mg/kg daily, 5 days a week for 3 weeks), combination treatment with both agents, and vehicle. Bioluminescence imaging was performed under anesthesia using an IVIS 50 optical imaging system.

[6] = test system: HT29 Human colorectal cancer cells; test: HT29 xenograft, TH302 in combination with irinotecan; type: in vivo, mice; conditions: CPT-11 monotherapy 50 mg/kg i.p. Q7D×3, vs control group
Method: TH302 and irinotecan (CPT-11) were formulated as follows: TH302 (7.5 mg/mL) in saline and CPT-11 (5 mg/mL) in 2% Tween80-saline. The formulations were filtered through a 0.2 μm filter then delivered to animals within one hour after it was made. HT29 Human colorectal cancer cells were prepared in 50% matrigel and 50% RPMI 1640 medium and implanted (3×10^6 cells) in the subcutaneous space of the right flank of 90 mice (0.2 mL/mouse). Tumor volumes reached about 160 mm^3 on day 12 day post implantation. Seventy two animals with similar tumor size were chosen for treatment after randomization. The remaining mice were used as no treatment control.
The mice were administered TH302 intravenously at 75 mg/kg, once per week for 2 weeks (Q7D×2, i.v.) alone, and in combination with CPT-11, administered at, 50 mg/kg, (Q7D×3, intraperitoneally (i.p.)). […] After dosing started, tumor volumes were measured twice per week. […] For the mice administered CPT-11 alone, i.e., those on CPT-11 monotherapy, 41% tumor growth inhibition was observed compared to the control group of mice.

[7] = bromo-IPM in rats after TH302 12.5 mg/kg Q7D×3, Day 15
[8] = bromo-IPM in rats after TH302 25 mg/kg Q7D×3, Day 15
[9] = bromo-IPM in rats after TH302 50 mg/kg Q7D×3, Day 15
[10] = bromo-IPM in dogs after TH302 8 mg/kg Q7D×3, Day 15
[11] = bromo-IPM in dogs after TH302 16 mg/kg Q7D×3, Day 15

N.N.[Cl][Pt][Cl] [CDDP, reference compound]
reduction in tumor volume [1]: did not show significant reduction in tumor volume

O=P(O)(NCCBr)NCCBr [Br-IPM, HO—P(═O)(NHCH2CH2Br)2]
AUC [2, 7]: 0.107 µg·h/mL | Cmax [2, 7]: 0.286 µg/mL | half-life [2, 7]: 8.88 min | AUC [2, 8]: 0.0970 µg·h/mL | Cmax [2, 8]: 0.375 µg/mL | half-life [2, 8]: 8.28 min | AUC [2, 9]: 0.143 µg·h/mL | Cmax [2, 9]: 0.385 µg/mL | half-life [2, 9]: 23 min | AUC of the active toxin Br-IPM ([2]; rats, after TH302 25 mg/kg): about 97 h×ng/mL | AUClast [3, 10]: 0.0218 µg·h/mL | Cmax [3, 10]: 0.0627 µg/mL | AUClast [3, 11]: 0.0607 µg·h/mL | Cmax [3, 11]: 0.146 µg/mL | half-life [3, 11]: 18.3 min | AUC of the active toxin Br-IPM ([3]; dogs, after TH302 8 mg/kg): about 21.8 h×ng/mL

CC(=O)O[C@@]12CO[C@@H]1C[C@H](O)[C@@]1(C)C(=O)[C@H](O)C3=C(C)[C@@H](OC(=O)[C@H](O)[C@@H](NC(=O)OC(C)(C)C)c4ccccc4)C[C@@](O)([C@@H](OC(=O)c4ccccc4)[C@H]21)C3(C)C [Taxotere®, Docetaxel]
tumor volume regressed to ([4]; Taxotere 12 mg/kg once a week for two weeks, alone or with TH302): 21±15 mm^3 | tumor volume on day 62 ([4]; Taxotere alone or with TH302, P<0.01 combination vs Taxotere alone): 766 mm^3 | tumor growth delay (TGD) ([4]; single agent, Taxotere 12 mg/kg once a week for two weeks): 31 days | toxicities (weight loss, deaths) ([5]; TH302 50 mg/kg daily 5 days a week for 3 weeks, Taxotere 20 mg/kg once a week for three weeks i.v., or both): weight loss and a toxicity-related death | bone metastases and soft tissue tumor burden compared to vehicle ([5]; Taxotere alone 20 mg/kg once a week for three weeks, i.v.): significant reduction in bone metastases and soft tissue tumor burden

CCc1c2c(nc3ccc(OC(=O)N4CCC(N5CCCCC5)CC4)cc13)-c1cc3c(c(=O)n1C2)COC(=O)[C@]3(O)CC [CPT-11, irinotecan]
tumor growth inhibition [6]: 41%
